Tests used:
[1] = test system: transformed human fibroblast (HTB 1080) cells; assay: Colony formation by transformed human fibroblasts (Example 1); type: cell-based; conditions: 50 μM; 37° C.
Experimental: (2) Transformed Syrian Hamster Embryonic Fibroblasts (BP-6) and Transformed Human Fibroblasts (HTB1080). Colony formation by the fibroblasts in the presence of the methylphosphonate analogues was carried out as described by Miller et al, Biochemistry 16, 1988 (1977).

E. coli B = assay: Colony formation by E. coli B (Example 1); type: cell-based; conditions: 37° C.
Experimental: (1) E. coli, E. coli B was grown in M-9 medium supplemented with glucose ([…]) and 1% casamino acids. The cells were harvested in mid-log phase and resuspended in 50 μL of fresh medium containing 0-160 μM oligomer at a final cell density of 1×10^4 cells/mL. The cells were incubated for 1 h at 37° C. and then diluted with 0.9 mL of medium. A 0.8-mL aliquot was added to 2.5 mL of 0.8% Bactoagar at 45° C. This solution was quickly poured onto a 100-mm plate containing solid 1.2% Bactoagar. After solidification, the plates were incubated overnight at 37° C. and the resulting colonies were counted.

In the case of d-ApT, the “% inhibition of colony formation, HBT 1080” value [1] is reported as 12%, the “% inhibition of colony formation, E. coli B” value (E. coli B; 50 μM) is reported as 4% and the “% inhibition of colony formation, E. coli B” value (E. coli B; 160 μM) is reported as 5%.
